Peptide text beside a SMILES is read from it.
Columns and labels:
[1] = biological target: T1, SIRT1 (Homo sapiens, UniProt Q96EB6); settings: n = 2; cited from earlier work
T1 sequence (Q96EB6 1-747): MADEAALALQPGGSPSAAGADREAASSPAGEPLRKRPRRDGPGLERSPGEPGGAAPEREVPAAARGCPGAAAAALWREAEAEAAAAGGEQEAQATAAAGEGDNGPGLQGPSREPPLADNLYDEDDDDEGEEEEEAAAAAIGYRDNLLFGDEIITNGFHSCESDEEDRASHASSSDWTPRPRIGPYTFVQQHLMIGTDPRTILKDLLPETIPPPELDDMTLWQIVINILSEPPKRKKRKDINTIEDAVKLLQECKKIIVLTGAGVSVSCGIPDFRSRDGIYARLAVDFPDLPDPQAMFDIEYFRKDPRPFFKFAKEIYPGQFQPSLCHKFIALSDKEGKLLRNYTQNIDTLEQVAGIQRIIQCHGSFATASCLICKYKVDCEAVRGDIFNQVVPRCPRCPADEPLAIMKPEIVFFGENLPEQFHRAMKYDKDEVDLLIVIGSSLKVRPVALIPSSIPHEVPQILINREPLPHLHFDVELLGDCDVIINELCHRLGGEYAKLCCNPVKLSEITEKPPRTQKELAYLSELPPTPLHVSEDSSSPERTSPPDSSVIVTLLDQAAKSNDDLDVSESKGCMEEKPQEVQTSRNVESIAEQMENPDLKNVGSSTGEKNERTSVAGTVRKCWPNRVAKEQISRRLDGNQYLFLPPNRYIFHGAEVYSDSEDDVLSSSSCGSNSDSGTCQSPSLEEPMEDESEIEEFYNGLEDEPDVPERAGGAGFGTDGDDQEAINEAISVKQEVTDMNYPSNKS

[2] = biological target: T2, SIRT2 (Homo sapiens, UniProt Q8IXJ6); settings: cited from earlier work; for Inhibition (at 60 μM ± SE (%)) SIRT2: n = 2
T2 sequence (Q8IXJ6 1-389): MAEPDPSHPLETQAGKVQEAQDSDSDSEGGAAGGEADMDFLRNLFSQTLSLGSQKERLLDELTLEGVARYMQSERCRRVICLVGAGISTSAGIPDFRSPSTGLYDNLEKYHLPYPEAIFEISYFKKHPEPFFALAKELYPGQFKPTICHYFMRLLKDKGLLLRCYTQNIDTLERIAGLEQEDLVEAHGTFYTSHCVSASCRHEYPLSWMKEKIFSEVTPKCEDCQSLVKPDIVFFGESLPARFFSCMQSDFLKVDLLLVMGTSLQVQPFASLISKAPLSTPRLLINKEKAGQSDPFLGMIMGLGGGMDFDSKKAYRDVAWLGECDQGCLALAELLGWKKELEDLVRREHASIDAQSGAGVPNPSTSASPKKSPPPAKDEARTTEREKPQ

[3] = biological target: T2, SIRT2; settings: cited from earlier work
[4] = biological target: T3, Sirt5 (Homo sapiens, UniProt Q9NXA8); settings: cited from earlier work
T3 sequence (Q9NXA8 37-310): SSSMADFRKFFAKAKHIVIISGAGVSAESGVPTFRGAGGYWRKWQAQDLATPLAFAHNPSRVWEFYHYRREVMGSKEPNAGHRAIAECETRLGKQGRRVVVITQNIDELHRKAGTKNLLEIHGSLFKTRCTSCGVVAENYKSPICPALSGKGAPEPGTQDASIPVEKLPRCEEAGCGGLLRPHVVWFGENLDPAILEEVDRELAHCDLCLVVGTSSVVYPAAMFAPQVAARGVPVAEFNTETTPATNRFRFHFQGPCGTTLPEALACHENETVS

[5] = biological target: T1, SIRT1; settings: cited from earlier work
[6] = biological target: Hst2 (Saccharomyces cerevisiae, UniProt P53686); settings: cited from earlier work
Hst2, sequence (P53686 whole entry): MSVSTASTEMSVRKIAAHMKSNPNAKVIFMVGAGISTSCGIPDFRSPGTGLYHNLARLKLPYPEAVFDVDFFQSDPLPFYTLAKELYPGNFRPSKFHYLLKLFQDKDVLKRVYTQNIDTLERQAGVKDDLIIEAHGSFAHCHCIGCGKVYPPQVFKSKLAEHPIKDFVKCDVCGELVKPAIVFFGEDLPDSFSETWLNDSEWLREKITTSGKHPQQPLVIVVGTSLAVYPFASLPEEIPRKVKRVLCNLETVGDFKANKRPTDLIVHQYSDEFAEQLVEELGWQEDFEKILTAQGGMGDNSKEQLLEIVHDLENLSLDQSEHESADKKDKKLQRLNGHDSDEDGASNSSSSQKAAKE

[7] = biological target: T1, SIRT1; settings: cited from earlier work; remark: listed apart in the source
[8] = biological target: T4, sirtuin (Homo sapiens, UniProt Q8IXJ6); settings: cited from earlier work
T4 sequence (Q8IXJ6 2-389 limits assumed): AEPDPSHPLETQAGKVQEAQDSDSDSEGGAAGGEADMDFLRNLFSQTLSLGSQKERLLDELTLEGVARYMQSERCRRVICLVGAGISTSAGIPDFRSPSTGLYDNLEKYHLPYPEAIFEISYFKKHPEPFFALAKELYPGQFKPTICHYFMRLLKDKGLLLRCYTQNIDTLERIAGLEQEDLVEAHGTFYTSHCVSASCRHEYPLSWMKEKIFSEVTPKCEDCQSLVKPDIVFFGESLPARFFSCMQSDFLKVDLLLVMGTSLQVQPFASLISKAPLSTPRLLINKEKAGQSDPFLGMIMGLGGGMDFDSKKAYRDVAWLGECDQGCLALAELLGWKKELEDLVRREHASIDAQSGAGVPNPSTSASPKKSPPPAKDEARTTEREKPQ

[9] = biological target: Sirt6 (Homo sapiens, UniProt Q8N6T7); settings: cited from earlier work
Sirt6, sequence (Q8N6T7 whole entry): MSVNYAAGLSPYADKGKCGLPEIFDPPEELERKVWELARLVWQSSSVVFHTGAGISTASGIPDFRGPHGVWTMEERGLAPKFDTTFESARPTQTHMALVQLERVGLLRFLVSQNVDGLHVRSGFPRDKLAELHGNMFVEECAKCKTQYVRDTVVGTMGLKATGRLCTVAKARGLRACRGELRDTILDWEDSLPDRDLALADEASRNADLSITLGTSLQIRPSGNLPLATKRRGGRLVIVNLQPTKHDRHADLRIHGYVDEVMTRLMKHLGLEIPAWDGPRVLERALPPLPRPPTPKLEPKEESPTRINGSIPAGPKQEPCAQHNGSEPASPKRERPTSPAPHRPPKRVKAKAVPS

[10] = system: HCMV pUL99; experiment: Late viral pUL99 expression and cytopathic effect in HCMV infected MRC5 cells; format: cell-based, human cytomegalovirus; settings: 10 μM; data not shown
[11] = system: HCMV; experiment: Yield of infectious HCMV from drug-treated infected MRC5 fibroblasts; format: cell-based, human cytomegalovirus; settings: FIG. 5
[12] = system: HCMV; format: cell-based, human cytomegalovirus
[13] = system: Influenza A (WSN/33/A, PR8); format: cell-based, influenza A virus

O=c1[nH]c(=S)[nH]c(-c2ccc(I)cc2)c1Cc1c(O)ccc2ccccc12 [Compd 6v]
Inhibition (at 60 μM ± SE (%)) SIRT1 [1]: 7.7 ± 1% | Inhibition (at 60 μM ± SE (%)) SIRT2 [2]: 7.7 ± 1%

O=Cc1ccc2c(c1)C(=O)c1ccc3c4ccc5c6c(ccc(c7ccc-2c1c37)c64)-c1ccc(C(=O)O)cc1C5=O [CSC14]
Sirt2 effect [3]: inhibition | Sirt5 effect [4]: inhibition

Cc1ccc2[nH]c3c(c2c1)CCCC3C(N)=O (stereo not drawn) [Indole 2]
IC50 [5]: 0.64 ± 0.06 µM | IC50 [6]: 14.5 ± 0.6 µM

O=C(Nc1ccccc1-c1cn2c(CN3CCNCC3)csc2n1)c1cnc2ccccc2n1 [SRT1720]
EC1.5: The concentration to activate 1.5-fold [7]: 0.16 µM

C(=Nc1ccc(N=Cc2ccccc2)cc1)c1ccccc1 [3a]
inhibition at 200 μM ± SD, % [8]: 35 ± 1.4%

Oc1ccccc1CNc1ccc(NCc2ccccc2O)cc1 [4b]
inhibition at 200 μM ± SD, % [8]: 27 ± 2.4%

Oc1ccc(C=Nc2ccc(N=Cc3ccc(O)cc3)cc2)cc1 [3d]
inhibition at 200 μM ± SD, % [8]: 22 ± 1.6%

COc1cccc(C=Nc2ccc(N=Cc3cccc(OC)c3)cc2)c1 [3g]
inhibition at 200 μM ± SD, % [8]: 20 ± 1.2%

O=S(=O)(c1cccc(C(F)(F)F)c1)N1c2ccccc2-n2cccc2C1c1cccnc1 (stereo not drawn) [CSC38]
Sirt2 effect [3]: inhibition | Sirt5 effect [4]: activation | Sirt6 effect [9]: activation

COc1ccccc1C=Nc1ccc(N=Cc2ccccc2OC)cc1 [3f]
inhibition at 200 μM ± SD, % [8]: 13 ± 0.5%

Cc1ccc(C(=O)Nc2ccc(S(=O)(=O)O)c3cc(S(=O)(=O)O)cc(S(=O)(=O)O)c23)cc1NC(=O)c1cccc(NC(=O)Nc2cccc(C(=O)Nc3cc(C(=O)Nc4ccc(S(=O)(=O)O)c5cc(S(=O)(=O)O)cc(S(=O)(=O)O)c45)ccc3C)c2)c1 [Suramin, suramin]
IC50 [6]: 240 ± 70 µM

NC(=O)C1CCCc2c1[nH]c1ccc(Cl)cc21 (stereo not drawn) [EX-527]
accumulation of late viral pUL99 protein [10]: increased

CN1CC(C(=O)NC2(C)OC3(O)C4CCCN4C(=O)C(Cc4ccccc4)N3C2=O)C=C2c3cccc4[nH]cc(c34)CC21 (stereo not drawn) [CSC21]
Sirt2 effect [3]: inhibition | Sirt5 effect [4]: inhibition | Sirt6 effect [9]: inhibition

c1cnc2ocnc2c1 [Oxazolopyridine]
EC1.5: The concentration to activate 1.5-fold [7]: 0.09 µM

C/C(=C1/C=C(c2ccc3ccccc3c2)OC1=O)c1ccc(C(C)C)cc1 [CSC9]
Sirt2 effect [3]: inhibition | Sirt5 effect [4]: activation^c

O=c1[nH]c(=S)[nH]c(-c2ccccc2Br)c1Cc1c(O)ccc2ccccc12 [Compd 6vii]
Inhibition (at 60 μM ± SE (%)) SIRT1 [1]: 19.7 ± 1%

O=c1[nH]c(=S)[nH]c(-c2cccc(Cl)c2)c1Cc1c(O)ccc2ccccc12 [Compd 6ix]
Inhibition (at 60 μM ± SE (%)) SIRT1 [1]: 11.3 ± 1% | Inhibition (at 60 μM ± SE (%)) SIRT2 [2]: 7.6 ± 6%

Oc1cccc(CNc2ccc(NCc3cccc(O)c3)cc2)c1 [4c]
inhibition at 200 μM ± SD, % [8]: 8 ± 0.4%

O=C1C2C3c4ccccc4C(c4ccccc43)C2C(=O)N1c1ccc(OCc2ccccc2)cc1 (stereo not drawn) [CSC34]
Sirt2 effect [3]: inhibition | Sirt6 effect [9]: activation

Oc1ccc(CNc2ccc(NCc3ccc(O)cc3)cc2)cc1 [4d]
inhibition at 200 μM ± SD, % [8]: 14 ± 0.5%

COc1cc(C(=O)Nc2ccccc2-c2cn3c(CN4CCNCC4)csc3n2)cc(OC)c1OC [SRT1460]
EC1.5: The concentration to activate 1.5-fold [7]: 2.9 µM

O=C1CCc2c(ccc3ccccc23)O1 [Splitomycin]
IC50 [6]: > 600 µM

O=c1[nH]c(=S)[nH]c(-c2ccc(C(F)(F)F)cc2)c1Cc1c(O)ccc2ccccc12 [Compd 6vi]
Inhibition (at 60 μM ± SE (%)) SIRT1 [1]: 15.1 ± 1% | Inhibition (at 60 μM ± SE (%)) SIRT2 [2]: 6.7 ± 1%

CC(C(=O)Nc1cccc(/N=C/c2c(O)ccc3ccccc23)c1)c1ccccc1 (stereo not drawn) [Salermide]
production of infectious HCMV [11]: blocked | inhibition of HCMV production by a factor of [12]: about 5 | inhibition of the production of HCMV progeny by a factor of [12]: ~80 | production of infectious Influenza A progeny [13]: inhibited

CC(C)CCCCCCCCC[C@@H]1CC(=O)NC(CCC(=O)O)C(=O)N[C@@H](CC(C)C)C(=O)N[C@H](CC(C)C)C(=O)N[C@@H](C(C)C)C(=O)N[C@@H](CC(=O)O)C(=O)N[C@H](CC(C)C)C(=O)N[C@@H](CC(C)C)C(=O)O1 (stereo partly drawn) [Surfactin, surfactin] (HELM PEPTIDE1{[O=C(O)CCC(N[*:1])C(=O)[*:2]].L.[dL].V.D.[dL].L}|CHEM1{[CC(C)CCCCCCCCC[C@H](CC(=O)[*:1])O[*:2]]}$PEPTIDE1,CHEM1,1:R1-1:R1|PEPTIDE1,CHEM1,7:R2-1:R2$$$V2.0)
IC50 [5]: > 600 µM | IC50 [6]: > 700 µM

c1cc2c(ccc3ncc[nH]c32)n1 [Pyrroloquinoxaline]
activation at this concentration ([7]; 10 μM): *233% activation at this concentration | EC1.5: The concentration to activate 1.5-fold [7]: 10 µM

Oc1ccccc1C=Nc1ccc(N=Cc2ccccc2O)cc1 [3b]
inhibition at 200 μM ± SD, % [8]: 56 ± 8.2%

c1ccc(CNc2ccc(NCc3ccccc3)cc2)cc1 [4a]
inhibition at 200 μM ± SD, % [8]: 21 ± 1.7%

C=C(C(C)c1ccc2c(c1)Cc1ccccc1-2)C(C)c1ccc2c(c1)Cc1ccccc1-2 (stereo not drawn) [CSC7]
Sirt2 effect [3]: inhibition

[H]/N=C(\c1cc(C)cc(C)c1)c1ccccc1Cc1cccc2ccccc12 [CSC23]
Sirt2 effect [3]: inhibition

Oc1cccc(C=Nc2ccc(N=Cc3cccc(O)c3)cc2)c1 [3c]
inhibition at 200 μM ± SD, % [8]: 12 ± 0.9%

CN(C)CCCCC(=O)Nc1ccc(NC(=S)NC(=O)c2ccc(C(C)(C)C)cc2)cc1 [Tenovin 6]
production of infectious HCMV [11]: blocked | IC50 [6]: > 100 µM

O=C1c2ccccc2C(=O)c2c(NCc3cc4c5c(ccc6c7ccc8c9c(cc(Nc%10cccc%11c%10C(=O)c%10ccccc%10C%11=O)c(c3c56)c97)-c3ccccc3C8=O)C(=O)c3ccccc3-4)cccc21 [CSC6]
Sirt2 effect [3]: inhibition | Sirt6 effect [9]: inhibition

O=c1[nH]c(=S)[nH]c(-c2ccc(Br)cc2)c1Cc1c(O)ccc2ccccc12 [Compd 6b]
IC50 ([2]; determined for compounds with over 60% inhibition at 60 μM): > 90 µM

O=c1[nH]c(=S)[nH]c(-c2ccc(Cl)cc2)c1Cc1c(O)ccc2ccccc12 [Compd 6iv]
Inhibition (at 60 μM ± SE (%)) SIRT1 [1]: 13.7 ± 1% | Inhibition (at 60 μM ± SE (%)) SIRT2 [2]: 20.1 ± 1%

O=c1[nH]c(=S)[nH]c(-c2cccc(Br)c2)c1Cc1c(O)ccc2ccccc12 [Compd 6viii]
Inhibition (at 60 μM ± SE (%)) SIRT1 [1]: 4.8 ± 1% | Inhibition (at 60 μM ± SE (%)) SIRT2 [2]: 6.6 ± 3%

O=C1OC2(c3ccc(O)cc3Oc3cc(O)ccc32)c2c1c(-c1ccccc1)c(-c1ccccc1)c(-c1ccccc1)c2-c1ccccc1 [CSC28]
Sirt2 effect [3]: inhibition | Sirt6 effect [9]: activation

O=S1(=O)C(c2ccccc2)C(N2CCCCC2)C1C1CC2c3ccccc3C1c1ccccc12 (stereo not drawn) [CSC33]
Sirt5 effect [4]: activation | Sirt6 effect [9]: activation
